Here are results for 16 compounds from patent US9868692B2, “Compounds and compositions for intracellular delivery of therapeutic agents” (MODERNATX, Inc., priority 2015, dated 2018).

Data set [1] is described as follows: Particle size, polydispersity index (and zeta potential) of nanoparticle compositions, Zetasizer Nano ZS. The data set is classed as physicochemical. The conditions noted are these: Table 1A formulations. An excerpt: Nanoparticle compositions may be characterized by a variety of methods. For example, microscopy (e.g., transmission electron microscopy or scanning electron microscopy) may be used to examine the morphology and size distribution of a nanoparticle composition. Dynamic light scattering or potentiometry (e.g., potentiometric titrations) may be used to measure zeta potentials. Dynamic light scattering may also be utilized to determine particle sizes. Instruments such as the Zetasizer Nano ZS (Malvern Instruments Ltd, Malvern, Worcestershire, UK) may also be used to measure multiple characteristics of a nanoparticle composition, such as particle size, polydispersity index, and zeta potential.
A Zetasizer Nano ZS (Malvern Instruments Ltd, Malvern, Worcestershire, UK) can be used to determine the particle size, the polydispersity index (PDI) and the zeta potential of the nanoparticle compositions in 1×PBS in determining particle size and 15 mM PBS in determining zeta potential.

The nature of data set [2]: Residual lipid level in liver of rats (UPLC-MS quantification). Type of data set: in vivo. The conditions noted are these: rat; for concentration at 48 h: intravenous; for % Lipid Remaining in liver, 48 h 2 mpk: assuming 300 g rat and 15 g liver. As for the experimental part:
(§1) To pre-weighed tissues, Milli-Q water was added (900 μL water per 100 mg tissue). Tissues were homogenized using an Omni probe homogenizer until uniform. 50 μL of samples and matrix calibration standards were aliquoted into a 96-well plate. 50 μL of blank matrix for matrix blanks and control blanks were aliquoted. 400 μL IS spiking solution were manually added to all samples except matrix blanks. 400 μL of 50:50 ACN:IPA were manually added to matrix blanks. The plate was covered and the samples vortexed and centrifuged for 5 minutes at >3000 rpm. 200 μL of the samples were transferred into a clean 96-well plate for analysis. […] Detection was based on electrospray ionization (ESI) in positive mode using a Sciex API5500 Mass Spectrometer.
(§2) The expression of hEPO in rats intravenously administered a nanoparticle composition at a dose of 0.2 mpk or 2.0 mpk was measured at 6 hours. […] Liver and spleen levels represent the average values calculated for 3 rats in each group.
(§3) The expression of hEPO and lipid levels in the liver and spleen in rats intravenously administered a nanoparticle composition at a dose of 0.2 mpk was measured at various timepoints. […] Lipids were formulated according to the standard MC3 formulation described above.

Data set [3] is described as follows: Residual lipid level in spleen of rats (UPLC-MS quantification). Type of data set: in vivo. Particulars: rat. How it is done: as §1, §2, §3
Setting [4] is: liver, 0.2 mg/kg, 0.2 mpk, 48 h, average of 3 rats, read-out: Liver level.
[5] abbreviates: liver, 2 mg/kg, 2 mpk, 48 h, average of 3 rats, read-out: Liver level.
The mark [6] stands for this setting: intravenous, 0.2 mg/kg, 0.2 mpk, 48 h, average of 3 rats, read-out: Spleen level.
[7] abbreviates: intravenous, 2 mg/kg, 2 mpk, 48 h, average of 3 rats, read-out: Spleen level.
Where [8] appears, read: liver, iv, 0.2 mg/kg, 0.2 mpk, 48 hours, read-out: Liver level.
[9] abbreviates: liver, iv, 2 mg/kg, 2 mpk, 48 hours, read-out: Liver level.
Where [10] appears, read: iv, 0.2 mg/kg, 0.2 mpk, 48 hours, read-out: Spleen level.
[11] abbreviates: iv, 2 mg/kg, 2 mpk, 48 hours, read-out: Spleen level.

Where only a bound is given, the exact number is not on record here.

Take `CCCCCCCCCOC(=O)CCCCCCCN(CCCCCCCC(=O)OC(CCCCCCCC)CCCCCCCC)CCCNC(=O)NC` [Compound 112, Heptadecan-9-yl 8-((3-(3-methylureido)propyl)(8-(nonyloxy)-8-oxooctyl)amino)octanoate]: the PDI in data set [1] was found to be 0.12.
As to `CCCCCCCCC(CCCCCCCC)OC(=O)CCCCCCCN(CCO)CCCC(=O)OCCCCCC` [Compound 53, heptadecan-9-yl 8-((4-(hexyloxy)-4-oxobutyl)(2-hydroxyethyl)amino) octanoate], the concentration at 48 h was found to be 4810 ng/g in data set [2] (setting [4]), 47000 ng/g in data set [2] (setting [5]), 1180 ng/g in data set [3] (setting [6]) and 201000 ng/g in data set [3] (setting [7]).
In data set [1], `CCCCCCCCCOC(=O)CCCCCCCN(CCCCCCCC(=O)OC(CCCCCCCC)CCCCCCCC)CCCN/C(=N/C#N)N(C)C` [Compound 168, Heptadecan-9-yl (Z)-8-((3-(2-cyano-3,3-dimethylguanidino)propyl)(8-(nonyloxy)-8-oxooctyl)amino)octanoate] had a PDI of 0.1.
In the case of `CCCCCCCCCCCOC(=O)CCCCCN(CCO)CCCCCCCC(=O)OC(CCCCCCCC)CCCCCCCC` [Compound 25, Heptadecan-9-yl 8-((2-hydroxyethyl)(6-oxo-6-(undecyloxy)hexyl)amino)octanoate], the concentration at 0.25 h was 12000 ng/g in data set [2] (liver, iv, 0.2 mg/kg, 0.2 mpk, 0.25 h) and 4040 ng/g in data set [3] (iv, 0.2 mg/kg, 0.2 mpk, 0.25 h). Also, the concentration at 0.5 h stood at 16400 ng/g in data set [2] (liver, iv, 0.2 mg/kg, 0.2 mpk, 0.5 h) and 6880 ng/g in data set [3] (iv, 0.2 mg/kg, 0.2 mpk, 0.5 h). The concentration at 1 h is 17900 ng/g in data set [2] (liver, iv, 0.2 mg/kg, 0.2 mpk, 1 h) and 8590 ng/g in data set [3] (iv, 0.2 mg/kg, 0.2 mpk, 1 h). Besides, the concentration at 2 h in data set [2] (liver, iv, 0.2 mg/kg, 0.2 mpk, 2 h) is 11700 ng/g; in data set [3] (iv, 0.2 mg/kg, 0.2 mpk, 2 h), 13700 ng/g. Also, the concentration at 4 h in data set [2] (liver, iv, 0.2 mg/kg, 0.2 mpk, 4 h) was 6690 ng/g; in data set [3] (iv, 0.2 mg/kg, 0.2 mpk, 4 h) it was 20400 ng/g. Moreover, the concentration at 8 h in data set [2] (liver, iv, 0.2 mg/kg, 0.2 mpk, 8 h) was 2360 ng/g; in data set [3] (iv, 0.2 mg/kg, 0.2 mpk, 8 h), 10800 ng/g. The concentration at 24 h was 199 ng/g in data set [2] (liver, iv, 0.2 mg/kg, 0.2 mpk, 24 h) and 2020 ng/g in data set [3] (iv, 0.2 mg/kg, 0.2 mpk, 24 h). In addition, the concentration at 48 h is 12000 ng/g in data set [2] (liver, iv, 0.2 mg/kg, 0.2 mpk, 48 h, read-out: Lipid level in liver) and 1550 ng/g in data set [3] (iv, 0.2 mg/kg, 0.2 mpk, 48 h, read-out: Lipid level in spleen).
As to `CCCCCCCCCOC(=O)CCCN(CCO)CCCCCCCC(=O)OC(CCCCCCCC)CCCCCCCC` [Compound 26, Heptadecan-9-yl 8-((2-hydroxyethyl)(4-(nonyloxy)-4-oxobutyl)amino) octanoate], the “% Lipid Remaining in liver, 48 h 2 mpk” value in data set [2] (2 mpk, 48 h) amounted to 20%.
`CCCCCCCCCOC(=O)CCCCCCCN(CCO)CCCCCCCC(=O)OC(CCCCC)CCCCCCCC` (stereo not drawn) [Compound 33, nonyl 8-((2-hydroxyethyl)(8-oxo-8-(tetradecan-6-yloxy)octyl)amino) octanoate]: the concentration at 48 h in data set [2] (setting [5]) came to 103 ng/g; in data set [3] (setting [6]) it was 115 ng/g; in data set [3] (setting [7]), 287 ng/g.
As for `CCCCCCCCC(CCCCCCCC)OC(=O)CCCCCCCN(CCO)CCCC(=O)OCCCCCCC` [Compound 54, heptadecan-9-yl 8-((4-(heptyloxy)-4-oxobutyl)(2-hydroxyethyl)amino) octanoate], the concentration at 48 h in data set [2] (setting [4]) is 6070 ng/g; in data set [2] (setting [5]), 56100 ng/g; in data set [3] (setting [6]), 6360 ng/g; in data set [3] (setting [7]), 49400 ng/g.
As to `CCCCCC/C=C\COC(=O)CCCCCCCN(CCO)CCCCCCCC(=O)OC(CCCCCCCC)CCCCCCCC` [Compound 24, Heptadecan-9-yl (Z)-8_((2-hydroxyethyl)(8-(non-2-en-1-yloxy)-8-oxooctyl)amino)octanoate], the “% Lipid Remaining in liver, 48 h 2 mpk” value in data set [2] (2 mpk, 48 h) was determined as 0.016%.
Consider `CCCCCCCCC(CCCCCCCC)OC(=O)CCCCCCCN(CCO)CCCC(=O)OC(CCCCC)CCCCCCCC` (stereo not drawn) [Compound 71, Heptadecan-9-yl 8-((2-hydroxyethyl)(4-oxo-4-(tetradecan-6-yloxy)butyl)amino)octanoate], for which the PDI in data set [1] was determined as 0.11.
As to `CCCCCCCCC(C)OC(=O)CCCCCCCN(CCO)CCCCCCCC(=O)OC(CCCCCCCC)CCCCCCCC` (stereo not drawn) [Compound 48, decan-2-yl 8-((8-(heptadecan-9-yloxy)-8-oxooctyl)(2-hydroxyethyl)amino)octanoate], the concentration at 48 h in data set [2] (setting [8]) turned out to be 5450 ng/g; in data set [2] (setting [9]) it was 34500 ng/g; in data set [3] (setting [10]), 0.31; in data set [3] (setting [11]), 0.21.
Regarding `CCCCCCCCC(CCCCCCCC)OC(=O)CCCCCCCN(CCO)CCCCCCCC(=O)OCC1CC1CCCCCC` (stereo not drawn) [Compound 28, Heptadecan-9-yl 8-((8-((2-hexylcyclopropyl)methoxy)-8-oxooctyl)(2-hydroxyethyl)amino)octanoate], the concentration at 48 h amounted to 49.6 ng/g in data set [2] (setting [4]), 665 ng/g in data set [2] (setting [5]), 268 ng/g in data set [3] (setting [6]) and 551 ng/g in data set [3] (setting [7]).
Turning to `CCCCCCCCCN(CCO)CCCCCCCC(=O)OC(CCCCCCCC)CCCCCCCC` [Compound 3, Heptadecan-9-yl 8-((2-hydroxyethyl)(nonyl)amino)octanoate], the “% Lipid Remaining in liver, 48 h 2 mpk” value in data set [2] (2 mpk, 48 h) was 14%.
The compound `CCCCCCCCCOC(=O)CCCCCCCN(CCCCCCCC(=O)OC(CCCCCCCC)CCCCCCCC)CCCOC(=O)NC` [Compound 175, Heptadecan-9-yl 8-((3-((methylcarbamoyl)oxy)propyl)(8-(nonyloxy)-8-oxooctyl)amino)octanoate] displayed a PDI in data set [1] of 0.2.
For the compound `CCCCCCCCC(CCC)OC(=O)CCCCCCCN(CCO)CCCCCCCC(=O)OC(CCCCCCCC)CCCCCCCC` (stereo not drawn) [Compound 50, dodecan-4-yl 8-((8-(heptadecan-9-yloxy)-8-oxooctyl)(2-hydroxyethyl)amino)octanoate], the concentration at 48 h turned out to be 5820 ng/g in data set [2] (setting [8]), 79200 ng/g in data set [2] (setting [9]), 0.22 in data set [3] (setting [10]) and 0.17 in data set [3] (setting [11]).
As to `CCCCCCCCCOC(=O)CCCCCCCN(CCO)CCCCCCCOC(=O)C(CCCCCCCC)CCCCCCCC` [Compound 30, 7-((2-Hydroxyethyl)(8-(nonyloxy)-8-oxooctyl)amino)heptyl 2-octyldecanoate], the “% Lipid Remaining in liver, 48 h 2 mpk” value in data set [2] (2 mpk, 48 h) is less than 0.01%.
For the compound `CCCCCCCCCOC(=O)CCCCCCCN(CCO)CCCCCCC(=O)OCC(CCCCCCCC)CCCCCCCC` [Compound 143, Nonyl 8-((2-hydroxyethyl)(7-((2-octyldecyl)oxy)-7-oxoheptyl)amino)octanoate], the PDI in data set [1] stood at 0.19.
